From patent US20110178053A1, “AZACARBOLINE DERIVATIVES, PREPARATION METHOD THEREOF AND THERAPEUTIC USE OF SAME” (SANOFI-AVENTIS, priority 2008, published 2011)

Experiments:
[1] = biological target: PLK1 (Homo sapiens, UniProt P53350); test: PLK1 biochemical inhibition
[2] = biological target: T1, Pim-1 (Homo sapiens, UniProt P11309); test: TR-FRET assay, Pim-1 kinase (phosphorylation of Bad Ser112); assay type: biochemical; details: TR-FRET; ATP 40 μM; read-out: IC50 Pim1
T1 construct: His6-labelled recombinant full-length human Pim-1, Pim-2 or Pim-3 protein; His6; made in house
T1 sequence (P11309 whole entry): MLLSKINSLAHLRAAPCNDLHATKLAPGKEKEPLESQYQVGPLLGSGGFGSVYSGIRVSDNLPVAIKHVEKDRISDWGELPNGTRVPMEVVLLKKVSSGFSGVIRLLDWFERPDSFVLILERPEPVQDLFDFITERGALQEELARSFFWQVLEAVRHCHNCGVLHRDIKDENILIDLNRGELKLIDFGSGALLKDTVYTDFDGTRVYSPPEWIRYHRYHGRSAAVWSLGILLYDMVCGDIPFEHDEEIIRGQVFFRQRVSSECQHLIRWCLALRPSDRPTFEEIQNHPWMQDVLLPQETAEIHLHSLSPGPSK
How it was run: (§1)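 Recombinant His6-tagged full-length human Pim-1, Pim-2 or Pim-3 phosphorylates His6-tagged full-length human Bad at 40 μM ATP (apparent KM). Phospho-Ser112 is detected by TR-FRET between Eu-labelled anti-phosphoBad and APC-labelled anti-His6 (665/615 nm ratio); 10-point duplicate series, top typically 30 μM, IC50 from 4-parameter logistic fit.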

[3] = biological target: T2, Pim-3 (Homo sapiens, UniProt Q86V86); test: TR-FRET assay, Pim-3 kinase (phosphorylation of Bad Ser112); assay type: biochemical; details: TR-FRET; ATP 40 μM; read-out: IC50 Pim3
T2 construct: His6-labelled recombinant full-length human Pim-1, Pim-2 or Pim-3 protein; His6; made in house
How it was run: as §1

[4] = biological target: T3, Pim-2 (Homo sapiens, UniProt Q9P1W9); test: TR-FRET assay, Pim-2 kinase (phosphorylation of Bad Ser112); assay type: biochemical; details: TR-FRET; ATP 40 μM; read-out: IC50 Pim2
T3 construct: His6-labelled recombinant full-length human Pim-1, Pim-2 or Pim-3 protein; His6; made in house
T3 sequence (Q9P1W9 whole entry): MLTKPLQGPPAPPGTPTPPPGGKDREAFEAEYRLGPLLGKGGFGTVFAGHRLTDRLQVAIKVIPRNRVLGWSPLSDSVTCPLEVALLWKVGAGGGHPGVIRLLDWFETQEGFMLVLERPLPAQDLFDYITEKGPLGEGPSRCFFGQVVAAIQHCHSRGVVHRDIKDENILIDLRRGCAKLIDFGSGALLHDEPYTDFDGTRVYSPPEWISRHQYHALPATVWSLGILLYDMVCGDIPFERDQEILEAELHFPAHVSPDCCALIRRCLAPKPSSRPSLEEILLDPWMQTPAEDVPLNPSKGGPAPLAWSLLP
How it was run: as §1

Chain of PLK1 (P53350 whole entry, species assumed): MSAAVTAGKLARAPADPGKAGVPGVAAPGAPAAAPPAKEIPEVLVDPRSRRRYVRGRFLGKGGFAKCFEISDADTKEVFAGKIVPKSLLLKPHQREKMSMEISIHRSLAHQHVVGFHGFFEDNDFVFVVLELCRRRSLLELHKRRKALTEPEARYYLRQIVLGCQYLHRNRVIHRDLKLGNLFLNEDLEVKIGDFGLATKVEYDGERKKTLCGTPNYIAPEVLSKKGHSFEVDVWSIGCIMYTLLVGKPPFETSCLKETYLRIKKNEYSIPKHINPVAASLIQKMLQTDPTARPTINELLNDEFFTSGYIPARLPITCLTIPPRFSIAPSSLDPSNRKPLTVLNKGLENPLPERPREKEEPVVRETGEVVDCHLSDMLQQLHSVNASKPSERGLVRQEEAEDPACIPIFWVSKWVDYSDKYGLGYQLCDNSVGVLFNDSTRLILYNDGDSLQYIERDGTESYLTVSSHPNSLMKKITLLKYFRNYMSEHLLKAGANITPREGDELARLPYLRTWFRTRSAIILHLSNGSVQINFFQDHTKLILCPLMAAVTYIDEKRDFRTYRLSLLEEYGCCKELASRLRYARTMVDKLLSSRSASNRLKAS

Row | Compound | IC50 [1] [nM] | IC50 [2] [nM] | IC50 [3] [nM] | IC50 [4] [nM]
1 | Fc1cnc2[nH]c3cnc(-c4cccnc4)cc3c2c1 [Example 2, 3-fluoro-6-(pyrid-3-yl)-9H-pyrrolo[2,3-b:5,4-c′] dipyridine] | 100 to 1000 | 100 to 1000 |  | 
2 | CCCN(C)C(=O)c1cnc2[nH]c3cnc(-c4cccnc4)cc3c2c1 [Example 6, N-methyl-N-propyl-6-(pyrid-3-yl)-9H-pyrrolo[2,3-b:5,4-c′]dipyridine-3-carboxamide] | > 5000 | 100 to 1000 | 1000 to 5000 | 1000 to 5000
3 | O=C(c1c(F)cnc2[nH]c3cnc(-c4cccnc4)cc3c12)N1CCOCC1 [Example 36, [3-fluoro-6-(pyrid-3-yl)-9H-pyrrolo[2,3-b:5,4-c′]-dipyrid-4-yl](morpholin-4-yl)methanone] | 1000 to 5000 | 100 to 1000 | 1000 to 5000 | > 5000
4 | c1cnc2[nH]c3cnc(-c4ccoc4)cc3c2c1 [Example 40, 6-furan-3-yl-9H-pyrrolo[2,3-b:5,4-c′]dipyridine] | > 5000 | 100 to 1000 | 1000 to 5000 | > 5000
5 | NCCCOc1ccc(-c2cnc3[nH]c4cnc(-c5cccnc5)cc4c3c2)cc1 [Example 155, 3-{4-[6-(pyrid-3-yl)-9H-pyrrolo[2,3-b:5,4-c′]dipyrid-3-yl]-phenoxy}propan-1-amine] |  | 1 to 100 | 1 to 100 | 100 to 1000
6 | Cc1cc(N2CCN(C(=O)OC(C)(C)C)CC2)ncc1-c1cnc2[nH]c3cnc(-c4cccnc4)cc3c2c1 [Example 156, 2-methyl-2-propyl 4-{4-methyl-5-[6-(pyrid-3-yl)-9H-pyrrolo[2,3-b:5,4-c′]dipyrid-3-yl]-pyrid-2-yl}piperazine-1-carboxylate] |  | 1 to 100 | 100 to 1000 | > 5000
7 | Cc1cc(N2CCNCC2)ncc1-c1cnc2[nH]c3cnc(-c4cccnc4)cc3c2c1 [Example 157, 3-[4-methyl-6-(piperazin-1-yl)pyrid-3-yl]-6-(pyrid-3-yl)-9H-pyrrolo[2,3-b:5,4-c′]-dipyridine] |  | 1 to 100 | 1 to 100 | 100 to 1000
8 | c1cncc(-c2cc3c(cn2)[nH]c2ncc(-c4ccc(N5CCNCC5)nc4)cc23)c1 [Example 158, 3-[6-(piperazin-1-yl)pyrid-3-yl]-6-(pyrid-3-yl)-9H-pyrrolo[2,3-b:5,4-c′]dipyridine] |  | 1 to 100 | 1 to 100 | 100 to 1000
9 | COc1cncc(-c2cc3c(cn2)[nH]c2ncc(F)cc23)c1 [Example 159, 3-fluoro-6-(5-methoxypyrid-3-yl)-9H-pyrrolo[2,3-b:5,4-c′]dipyridine] |  | 1000 to 5000 | 1000 to 5000 | > 5000
10 | COc1ccncc1-c1cc2c(cn1)[nH]c1ncc(F)cc12 [Example 160, 3-fluoro-6-(4-methoxypyrid-3-yl)-9H-pyrrolo[2,3-b:5,4-c′]dipyridine] |  | 100 to 1000 | 1000 to 5000 | > 5000
11 | CSc1cncc(-c2cc3c(cn2)[nH]c2ncc(F)cc23)c1 [Example 161, 3-fluoro-6-[5-(methylsulfanyl)pyrid-3-yl]-9H-pyrrolo[2,3-b:5,4-c′]dipyridine] |  | 100 to 1000 | 100 to 1000 | > 5000
12 | Fc1cnc2[nH]c3cnc(-c4ccsc4)cc3c2c1 [Example 162, 3-fluoro-6-(thiophen-3-yl)-9H-pyrrolo[2,3-b:5,4-c′]dipyridine] | 1000 to 5000 | > 5000 | > 5000 | 
13 | CCN(CC)CCCn1cc(-c2cc3c(cn2)[nH]c2ncc(OC)cc23)cn1 [Example 166, N,N-diethyl-3-[4-(3-methoxy-9H-pyrrolo[2,3-b:5,4-c′]dipyrid-6-yl)-1H-pyrazol-1-yl]-propan-1-amine] |  | 100 to 1000 | 1000 to 5000 | > 5000
14 | COc1cnc2[nH]c3cnc(-c4cnn(CCCCCN)c4)cc3c2c1 [Example 168, 5-[4-(3-methoxy-9H-pyrrolo[2,3-b:5,4-c′]dipyrid-6-yl)-1H-pyrazol-1-yl]pentan-1-amine] |  | 100 to 1000 | 100 to 1000 | > 5000
15 | COc1cnc2[nH]c3cnc(-c4cnn(CCC5CCCCN5C)c4)cc3c2c1 (stereo not shown) [Example 169, 3-methoxy-6-{1-[2-(1-methylpiperid-2-yl)ethyl]-1H-pyrazol-4-yl}-9H-pyrrolo[2,3-b:5,4-c′]dipyridine] |  | 100 to 1000 | 100 to 1000 | > 5000
16 | C=CCn1cc(-c2cc3c(cn2)[nH]c2nccc(-c4ccc(C(=O)OC)cc4)c23)cn1 [Example 170, methyl 4-{6-[1-(prop-2-en-1-yl)-1H-pyrazol-4-yl]-9H-pyrrolo[2,3-b:5,4-c′]dipyrid-4-yl}benzoate] |  | 1 to 100 | 100 to 1000 | 100 to 1000
17 | Cn1cc(-c2cc3c(cn2)[nH]c2ncc(F)c(-c4ccc(NS(C)(=O)=O)cc4)c23)cn1 [Example 171, N-{-4-[3-fluoro-6-(1-methyl-1H-pyrazol-4-yl)-9H-pyrrolo[2,3-b:5,4-c′]dipyrid-4-yl]-phenyl}methane sulfonamide] |  | 1 to 100 | 1 to 100 | 1 to 100
18 | O=C(O)c1cc2c(cn1)[nH]c1ncccc12 [Example 172, 9H-pyrrolo[2,3-b:5,4-c′]dipyridine-6-carboxylic acid] | > 5000 | > 5000 |  | > 5000

More lines, now with the values ahead:

Row | IC50 [1] [nM] | IC50 [2] [nM] | IC50 [3] [nM] | IC50 [4] [nM] | Compound
19 | 1 to 100 | 1 to 100 | 1 to 100 | 1000 to 5000 | Fc1cnc2[nH]c3cnc(-c4cccnc4)cc3c2c1C1CC1 [Example 32, 4-cyclopropyl-3-fluoro-6-(pyrid-3-yl)-9H-pyrrolo[2,3-b:5,4-c′]dipyridine]
20 | 100 to 1000 | 1 to 100 | 1000 to 5000 | > 5000 | O=C(c1ccccc1)c1c(F)cnc2[nH]c3cnc(-c4cccnc4)cc3c12 [Example 34, [3-fluoro-6-(pyrid-3-yl)-9H-pyrrolo[2,3-b:5,4-c′]-dipyrid-4-yl](phenyl)-methanone]
21 | 1 to 100 | 1 to 100 | 1 to 100 | 1000 to 5000 | O=S(=O)(CCl)Nc1ccc(-c2c(F)cnc3[nH]c4cnc(-c5cccnc5)cc4c23)cc1 [Example 45, 1-chloro-N-{4-[3-fluoro-6-(pyrid-3-yl)-9H-pyrrolo[2,3-b:5,4-c′]dipyrid-4-yl]-phenyl}-methanesulfonamide]
22 | 100 to 1000 | 1 to 100 | 1 to 100 | 1000 to 5000 | COc1cc(-c2c(F)cnc3[nH]c4cnc(-c5cccnc5)cc4c23)ccc1NS(C)(=O)=O [Example 47, N-{-4-[3-fluoro-6-(pyrid-3-yl)-9H-pyrrolo[2,3-b:5,4-c′]dipyrid-4-yl]-2-methoxyphenyl}-methanesulfonamide]
23 | 100 to 1000 | 1 to 100 | 1 to 100 | 100 to 1000 | CN(c1ccc(-c2c(F)cnc3[nH]c4cnc(-c5cccnc5)cc4c23)cc1)S(C)(=O)=O [Example 48, N-{-4-[3-fluoro-6-(pyrid-3-yl)-9H-pyrrolo[2,3-b:5,4-c′]dipyrid-4-yl]-phenyl}-N-methyl-methanesulfonamide]
24 | 1 to 100 | 1 to 100 | 1 to 100 | 1000 to 5000 | CS(=O)(=O)NCc1cccc(-c2c(F)cnc3[nH]c4cnc(-c5cccnc5)cc4c23)c1 [Example 62, N-{3-[3-fluoro-6-(pyrid-3-yl)-9H-pyrrolo[2,3-b:5,4-c′]-dipyrid-4-yl]benzyl}-methanesulfonamide]
25 | 1 to 100 | 1 to 100 | 100 to 1000 | > 5000 | COc1ccccc1-c1c(F)cnc2[nH]c3cnc(-c4cccnc4)cc3c12 [Example 63, 3-fluoro-4-(2-methoxyphenyl)-6-(pyrid-3-yl)-9H-pyrrolo[2,3-b:5,4-c′]-dipyridine]
26 | 1 to 100 | 1 to 100 | 1 to 100 | 100 to 1000 | CS(=O)(=O)NCc1ccc(-c2c(F)cnc3[nH]c4cnc(-c5cccnc5)cc4c23)cc1 [Example 66, N-{4-[3-fluoro-6-(pyrid-3-yl)-9H-pynolo[2,3-b:5,4-c′]-dipyrid-4-yl]benzyl}-methanesulfonamide]
27 | 1000 to 5000 | 1 to 100 | 1 to 100 | 100 to 1000 | CCCN(CCC)CCCN1CCN(c2c(F)cnc3[nH]c4cnc(-c5cccnc5)cc4c23)CC1 [Example 88, 3-{4-[3-fluoro-6-(pyrid-3-yl)-9H-pyrrolo[2,3-b:5,4-c′]dipyrid-4-yl]piperazin-1-yl}-N,N-dipropylpropan-1-amine]
28 | 1000 to 5000 | 1 to 100 | 100 to 1000 | 1000 to 5000 | CCN(CC)CCCN1CCN(c2c(F)cnc3[nH]c4cnc(-c5cccnc5)cc4c23)CC1 [Example 89, N,N-diethyl-3-{4-[3-fluoro-6-(pyrid-3-yl)-9H-pyrrolo[2,3-b:5,4-c′]dipyrid-4-yl]piperazin-1-yl}propan-1-amine]
29 | 1 to 100 | 1 to 100 | 100 to 1000 | 100 to 1000 | Oc1ccc(-c2c(F)cnc3[nH]c4cnc(-c5cccnc5)cc4c23)cc1 [Example 95, 4-[3-fluoro-6-(pyrid-3-yl)-9H-pyrrolo[2,3-b:5,4-c′]dipyrid-4-yl]phenol]
30 | 1000 to 5000 | 1 to 100 | 1 to 100 |  | CCN(CC)CCn1nc(C)c(-c2cnc3[nH]c4cnc(-c5cccnc5)cc4c3c2)c1C [Example 125, 2-{3,5-dimethyl-4-[6-(pyrid-3-yl)-9H-pyrrolo[2,3-b:5,4-c′]dipyrid-3-yl]-1H-pyrazol-1-yl}-N,N-diethyl-ethanamine]
